From ChEMBL document CHEMBL1122575, “Dependence of beta-lactamase stability on substructures within beta-lactam antibiotics” (J Med Chem, 1984) come the findings set out here.

Structures are written as SMILES. Values after ≈ are worked out from the molar mass of the structure shown.

Series [1] deals with Escherichia coli. The series can be described thus: Compound was evaluated for the antibacterial activity against Escherichia coli with strain NIHJ (beta-Lactamase-negative (LAC-)). It is filed as functional.
The nature of series [2]: Relative hydrolysis rate (RHR) was evaluated against RTEM enzyme. In kind it is ADME.
A short description of series [3]: Relative hydrolysis rate (RHR) was evaluated against K1 enzyme. In kind it is ADME.
Series [4] has as its system Klebsiella aerogenes. The series can be described thus: Compound was evaluated for the antibacterial activity against Klebsiella aerogenes with strain K1+ at 10e4/10e6 colony forming units; 12.5/>100. In kind it is functional.
The subject of series [5] is Escherichia coli. The series can be described thus: Compound was evaluated for the antibacterial activity against Escherichia coli (RTEM+organism) at 10e4/10e6 colony forming units; 0.1/0.1. In kind it is functional.
The subject of series [6] is Klebsiella aerogenes. The series can be described thus: Compound was evaluated for the antibacterial activity against Klebsiella aerogenes with strain K1- at 10e4/10e6 colony forming units; 0.05/0.1. In kind it is functional.
Series [7] has as its system Escherichia coli. The experiment in a line: Compound was evaluated for the antibacterial activity against Escherichia coli (RTEM-organism) at 10e4/10e6 colony forming units; <0.05/0.1. In kind it is functional.
For series [8], the system named is Escherichia coli. The series can be described thus: Compound was evaluated for the antibacterial activity against Escherichia coli with strain beta-Lactamase-negative (LAC-). It is filed as functional.
Series [9] concerns Escherichia coli. The series can be described thus: Compound was evaluated for the antibacterial activity against Escherichia coli (RTEM+ organism). It is filed as functional.
Series [10] is described as follows: Relative Vmax was reported. In kind it is ADME.
The test system of series [11] is Escherichia coli. The experiment in a line: Compound was evaluated for the antibacterial activity against Escherichia coli (RTEM-organism) at 10e4/10e6 cfu; 0.1/0.2. It is filed as functional.
Series [12] relates to Escherichia coli. The series can be described thus: Compound was evaluated for the antibacterial activity against Escherichia coli (RTEM+organism) at 10e4/10e6 cfu; 0.4/1.6. It is filed as functional.
The subject of series [13] is Klebsiella aerogenes. The experiment in a line: Compound was evaluated for the antibacterial activity against Klebsiella aerogenes with strain K1- at 10e4/10e6 cfu; 0.2/0.2. It is filed as functional.
In series [14] the test system is Klebsiella aerogenes. The series can be described thus: Compound was evaluated for the antibacterial activity against Klebsiella aerogenes with strain K1+ at 10e4/10e6 cfu; 100/>100. In kind it is functional.
Series [15] concerns Enterobacter cloacae. The series can be described thus: Compound was evaluated for the antibacterial activity against Enterobacter cloacae with the strains beta-Lactamase-positive (LAC+). It is filed as functional.
Series [16] has as its system Providencia rettgeri. The experiment in a line: Compound was evaluated for the antibacterial activity against Providencia rettgeri with the strains beta-Lactamase-positive (LAC+). It is filed as functional.
A short description of series [17]: Compound was evaluated for the relative Vmax against RTEM enzyme. It is filed as ADME.
Series [18] in a line: Compound was evaluated for the percentage remaining after 24 hr hydrolysis at a pH 7 at 37 degree Centigrade. As to conditions: buffer.
For series [19], the system named is Staphylococcus aureus. The experiment in a line: Percentage zonal reduction was evaluated against Staphylococcus aureus. In kind it is functional.
In series [20] the test system is Escherichia coli. The series can be described thus: Percentage zonal reduction was evaluated against Escherichia coli. It is filed as functional.
The test system of series [21] is Escherichia coli. The series can be described thus: Compound was evaluated for the antibacterial activity against Escherichia coli with strain NIHJ (beta-Lactamase-negative (LAC-). In kind it is functional.
In series [22] the test system is Escherichia coli. The series can be described thus: Compound was evaluated for the antibacterial activity against Escherichia coli (RTEM+ organism). It is filed as functional.
Series [23] concerns Escherichia coli. The series can be described thus: Compound was evaluated for the antibacterial activity against Escherichia coli (RTEM+organism) at 10E6 colony forming units. In kind it is functional.
The subject of series [24] is Escherichia coli. The series can be described thus: Compound was evaluated for the antibacterial activity against Escherichia coli with strain JC-S (beta-Lactamase-negative (LAC-)). It is filed as functional.
The test system of series [25] is Enterobacter cloacae. The series can be described thus: Compound was evaluated for the antibacterial activity against Enterobacter cloacae with strain 233 (beta-Lactamase-positive (LAC+)). It is filed as functional.
Series [26] concerns Escherichia coli. The series can be described thus: Compound was evaluated for the relative Vmax against Escherichia coli with strain 609 (beta-Lactamase-positive (LAC+)). In kind it is ADME, organism-based.
In series [27] the test system is Escherichia coli. The series can be described thus: Compound was evaluated for the antibacterial activity against Escherichia coli with strain 609 (beta-Lactamase-positive (LAC+)). In kind it is functional.
The test system of series [28] is Staphylococcus aureus. The series can be described thus: Compound was evaluated for the antibacterial activity against Staphylococcus aureus with strain beta-Lactamase-negative (LAC-). It is filed as functional.
Series [29] has as its system Staphylococcus aureus. The series can be described thus: Compound was evaluated for the antibacterial activity against Staphylococcus aureus with strain beta-Lactamase-positive (LAC+). It is filed as functional.
Series [30] relates to Staphylococcus aureus. The experiment in a line: Relative hydrolysis rate (RHR) was evaluated against Staphylococcus aureus with strain PC1. In kind it is ADME, organism-based.
The test system of series [31] is Escherichia coli. The series can be described thus: Compound was evaluated for the antibacterial activity against Escherichia coli (RTEM+organism) at 10e4/10e6 cfu; 0.8/3.1. It is filed as functional.
Series [32] concerns Escherichia coli. The experiment in a line: Compound was evaluated for the antibacterial activity against Escherichia coli (RTEM-organism) at 10e4/10e6 cfu; 1.6/1.6. It is filed as functional.
The test system of series [33] is Staphylococcus aureus. The series can be described thus: Compound was evaluated for the antibacterial activity against Staphylococcus aureus with the strain 209P. It is filed as functional.
In series [34] the test system is Staphylococcus aureus. The series can be described thus: Relative hydrolysis rate (RHR) was evaluated against Staphylococcus aureus with the strain FS108. In kind it is ADME, organism-based.

`Cn1nnnc1SCC1=C(C(=O)O)N2C(=O)C(NC(=O)C(C(=O)O)c3ccc(O)cc3)C2OC1` (centres undefined): the MIC in series [1] was found to be 0.2 µg/mL (≈ 0.408 µM). This compound showed an RHR in series [2] of 19.
Turning to `CC(=O)OCC1=C(C(=O)O)N2C(=O)[C@@H](NC(=O)/C(=N/OCC(=O)O)c3csc(N)n3)C2SC1` (some centres undefined), the results for the RHR in [2] and in series [3] were under 0.1 and 3, respectively.
In the case of `CO/N=C(/C(=O)N[C@@H]1C(=O)N(S(=O)(=O)[O-])[C@@H]1C)c1csc(N)n1.[K+]`, the MIC in series [4] was 12.5 µg/mL; in series [5], 0.1 µg/mL; in series [6] it was 0.05 µg/mL; in [7] it was under 0.05 µg/mL. The RHR is on record as 0.3 in series [2] and 6.4 in series [3].
Turning to `CC(=O)NCCSC1=C(C(=O)O)N2C(=O)[C@@H](C(C)OS(=O)(=O)[O-])C2C1.[K+]` (some centres undefined), the minimum inhibitory concentration (MIC) in series [8] worked out at 0.2 µg/mL; in series [9], 1.6 µg/mL.
`CC1(C)SC2[C@H](NC(=O)c3ccccc3)C(=O)N2C1C(=O)O` (some centres undefined): in [10], the RVmax is 2.
With `CO/N=C(/C(=O)N[C@@H]1C(=O)N(S(=O)(=O)[O-])[C@H]1C)c1csc(N)n1.[K+]`, the minimum inhibitory concentration (MIC) in series [11] was determined as 0.1 µg/mL; in series [12], 0.4 µg/mL; in series [13], 0.2 µg/mL; in series [14] it was 100 µg/mL. For the same compound, the RHR in series [2] is given as 1; in [3], 20.
In the case of `Cn1nnnc1SCC1=C(C(=O)[O-])N2C(=O)[C@@H](NC(=O)[C@H](NC(N)=O)c3ccco3)C2SC1.[Na+]` (some centres undefined), the minimal inhibitory concentration (MIC) came out at 25 µg/mL in series [15] and 12.5 µg/mL in series [16].
In series [17], `CO[C@]1(NC(C)=O)CN(S(=O)(=O)[O-])C1=O.[K+]` yielded an RVmax of under 0.01. The amount remaining at 24 h in [18] was under 1%.
Regarding `CC(=O)NCCSC1=C(C(=O)O)N2C(=O)[C@H]([C@@H](C)O)C2C1` (some centres undefined), the minimum inhibitory concentration (MIC) in series [8] and in series [9] was 6.2 µg/mL (≈ 19.7 µM) in each case.
In the case of `Cn1nnnc1SCC1=C(C(=O)[O-])N2C(=O)[C@@H](NC(=O)[C@@H](NC(N)=O)c3ccco3)C2SC1.[Na+]` (some centres undefined), the results for the MIC in series [15] and in series [16] were 0.6 µg/mL and 0.4 µg/mL, respectively.
As to `CC1=C(C(=O)O)N2C(=O)[C@@H](NC(=O)[C@@H](N)C3=CCC=CC3)C2SC1` (some centres undefined), the Zone reduction is reported as 25% in series [19] and 12% in [20].
`CCCO[C@@]1(NC(=O)CSCC#N)C(=O)N2C(C(=O)O)=C(CSc3nnnn3C)CSC21` (some centres undefined): the minimal inhibitory concentration (MIC) in [21] is over 200 µg/mL; in series [22], 200 µg/mL (≈ 400 µM).
`CO/N=C(\C(=O)N[C@@H]1C(=O)N2C(C(=O)O)=C(COC(C)=O)C[S@+]([O-])C12)c1csc(N)n1` (some centres undefined): in series [23], the lowest concentration to inhibit growth (MIC) was 0.1 µg/mL (≈ 0.212 µM). The RHR in [2] amounted to 0.
`CO[C@@]1(NC(=O)Cc2ccc(O)cc2)C(=O)N2C(C(=O)O)=C(CSc3nnnn3C)COC21` (some centres undefined): the MIC in series [24] turned out to be 0.1 µg/mL (≈ 0.21 µM); in series [25], 100 µg/mL (≈ 210 µM); in [22], 0.8 µg/mL (≈ 1.68 µM).
Turning to `CC(O)[C@H]1C(=O)N2C(C(=O)O)=C(SCCN)SC12` (some centres undefined), the MIC came out at 0.8 µg/mL (≈ 2.76 µM) in [1] and 1.5 µg/mL (≈ 5.17 µM) in [27]. In series [26], this compound returned an RVmax of under 0.1.
Consider `Cn1nnnc1SCC1=C(C(=O)O)N2C(=O)[C@@H](NC(=O)CSCC#N)C2SC1` (some centres undefined), for which the minimal inhibitory concentration (MIC) in [21] was determined as 0.8 µg/mL (≈ 1.81 µM); in series [22] it was 12.5 µg/mL (≈ 28.3 µM).
As to `CC1[C@H](NC(=O)CSc2cc(Cl)nc(Cl)c2)C(=O)N1OS(=O)(=O)O` (single isomer, unassigned), the values for the minimal inhibitory concentration (MIC) in series [28] and in series [29] were 0.1 µg/mL (≈ 0.24 µM) and 1.6 µg/mL (≈ 3.84 µM), respectively. The compound also displayed an RHR in series [30] of 1.
`CC(C)(O/N=C(/C(=O)N[C@H]1CN(C(=O)NS(C)(=O)=O)C1=O)c1csc(N)n1)C(=O)[O-].[K+]`: the MIC in series [31] was found to be 0.8 µg/mL; in series [32] it was 1.6 µg/mL.
In turn, `CC1(C)SC2[C@@H](NC(=O)Cc3ccccc3)C(=O)N2C1C(=O)O` (some centres undefined) had a minimal inhibitory concentration (MIC) in [33] of 1.6 µg/mL (≈ 4.78 µM). In addition, the RHR in series [34] turned out to be 2.2.
As for `CO[C@@]1(NC(=O)C(C(=O)O)c2ccc(O)cc2)C(=O)N2C(C(=O)O)=C(CSc3nnnn3C)COC21` (some centres undefined), the figures for the minimum inhibitory concentration (MIC) in [24], in [25] and in series [22] were 0.2 µg/mL (≈ 0.384 µM), 0.2 µg/mL (≈ 0.384 µM) and 0.4 µg/mL (≈ 0.769 µM), respectively.
For `NCCSC1=C(C(=O)O)N2C(=O)[C@@H](CO)C2S1` (some centres undefined), the MIC in [1] turned out to be 3.1 µg/mL (≈ 11.2 µM); in series [27], 25 µg/mL (≈ 90.5 µM). Moreover, the RVmax in [26] was 10.
